Values of other authors as cited in patent US20020155976A1, “Cleaning compositions” (Unilever Home & Personal Care USA, Division of Conopco, Inc., priority 2000, published 2002).
Read-outs that look alike come from different tables or passages of the source.

[1] = at 20° C., other common materials, by contrast

Water Solubility (grams of solid to form a saturated solution in 100 grams of water at 20° C., highly water-soluble materials)	Compound	Water Solubility [1]
>100 g/100 g	NC(N)=O [Urea]	–
–	O=BO[O-].[Na+] [Sodium perborate anhydrous]	3.7 g/100 g
–	O=P(O)(O)OP(=O)(O)OP(=O)(O)O [Sodium tripolyphosphate anhydrous]	15 g/100 g
